Test results published in US6623730B1, “Therapeutic uses of polymers and oligomers comprising gamma-hydroxybutyrate” (Tepha, Inc., priority 1999, dated 2003).

Experiments:
[1] = test system: sleep; conditions: rat, large dose; cited from earlier work
[2] = cited from earlier work
[3] = Digestibility of GHB oligomers in normal rats: serum GHB after gavage (GC-MS); conditions: for time for serum GHB to decrease to baseline values / be absorbed and cleared from the circulation: after gavage with GHB monomer
[4] = male, Sprague-Dawley, rat, serum, oral, 50 mg/kg

Row | SMILES | sleep duration [1] | time of peak plasma concentration ([2]; after oral administration) [min] | half-life of GHB ([2]; in vivo) [min] | concentration at 0.5 h [3, 4] [µM] | concentration at 1 h [3, 4] [µM] | concentration at 2 h [3, 4] [µM] | concentration at 4 h [3, 4] [µM] | GHB Monomer [GHB] concentration of GHB in serum ([3]; rat serum, 0.5 hr after gavage with 50 mg/kg sodium GHB monomer in TWEEN, 50 mg/kg) [µM] | time for serum GHB to decrease to baseline values / be absorbed and cleared from the circulation ([3]; rat, listed as GHB monomer) [h] | time for serum GHB to decrease to baseline values / be absorbed and cleared from the circulation ([3]; rat, listed as monomer) [h]
1 | CCOC(=O)CCCOC(C)=O [ethyl 4-acetoxybutanoate] | four | – | – | – | – | – | – | – | – | –
2 | O=C(O)CCCO [GHB Monomer, Gamma-hydroxybutyrate] | – | 20 to 60 | 35 | 182 ± 158 | 23.2 ± 2.05 | 12.8 ± 2.62 | 14.9 ± 3.31 | 182 ± 158 | ≤ 2 | 1 to 2
